Here are results for five compounds from patent EP0181109B1, “N6-benzopyrano- and benzothiopyrano-adenosines” (WARNER-LAMBERT COMPANY, priority 1984, dated 1986).

This assay concerns conscious rat. Briefly: Antihypertensive evaluation (AHP3): direct monitoring of aortic blood pressure and heart rate from conscious rats. Format: in vivo. As to the method:
This test procedure is described in the following paragraphs.
The continuous monitoring of pulsatile blood pressure (BP) from unrestrained conscious rats surgically equipped with polyethylene cannulas was accomplished by means of a computer assisted data capture scheme (CADCS). The basic elements of the methodology are the cannulation procedure and the CADCS.
Cannulation Procedure: Rats were anesthetized with Telazol (1:1 tiletamine HCI and zolazepam HCI); 20-40 mg/kg IM and the descending aorta exposed via a midline incision. Cannulas fabricated from polyethylene tubing were inserted into the aorta via an undersized puncture hole below the renal arteries. The puncture hole was made by a 23 G disposable needle with a section of the aorta clamped off above and below the puncture site. The cannulas, consisting of a PE100 (0.86 mm ID) body and a PE50 (0.58 mm ID) tip, were attached to a trocar, inserted through the psoas muscle, and passed subcutaneously along the midline of the back and externalized between the ears. The cannulas were anchored to the psoas muscle and between the scalulae (3-0 green braided suture). The midline incision was closed in two steps (muscle first, skin second) using continuous over-and over sutures (4-0 chronic). Each rat was then given penicillin 30,000 units subcutaneously (Penicillin G Procaine Sterile Suspension).
The rats were fitted with a harness-spring-swivel assembly designed to protect the cannula and to provide the rat relative freedom of movement. The harnesses were fabricated from nylon hook and loop tape cemented to a metal plate to which spring wires (18-8 stainless steel), were attached to brass swivels. Each polyethylene cannula was channeled through a spring and connected through a swivel to a pressure transducer (Model P23Gb; Statham Instruments; Hato Rey, Puerto Rico) and an infusion pump (Sage model 234-7; Orion Research, Cambridge, MA) by means of PE100 tubing. While on test, each rat received a continuous slow infusion of heparinized saline solution (approximately 400 I or 40 units of heparin per 24 hour period) to prevent clot formation. Additional "flushes" of the cannula with heparinized saline were carried out when the aortic pulse pressure (systolic minus diastolic) was less than 25 mm Hg.
CADCS: The pulsatile blood pressure and heart rate of each of 32 rats was monitored every minute by means of two in-laboratory microcomputers communicating directly with a data concentrator computer. The data were first stored on the data concentrator disk and the transferred to a magnetic tape for analysis and report generation by the main research computer. The overall scheme involved modulating the primary signal from the pressure transducer, generating the primary data set of the one-minute values for systolic, diastolic, and mean blood pressures and heart rate by the in-lab microcomputer and the storage, analysis, and report generation by the main research computer.
The transducers were connected to analog signal conditioning modules. The modules provided a regulated excitation voltage for the transducers, amplification as required to interface the microprocessors and an active low pass filter to compensate for the pressure wave form distortion produced by the fexible, fluid filled, narrow cannula. The distortion was 22-26 Hz and this provided a reliable estimate of both systolic and diastolic blood pressure.
The microcomputers (one for each of the two groups of 16 rats) were connected to the input components through the module interface units, an analog-to-digital converter for the pressure wave form signal and the digital inputs for the dose and event marker switches. The microcomputer controlled the sequential acquisition of data from the modular interface units through an internal synchronous time-of- day clock/time base generator. […]

Where [1] appears, read: 10 mg/kg, Hour 5, conscious rat.
Setting [2] is: 10 mg/kg, Hour 3, conscious rat.

On to `Cc1cc2c(cc1C)OCC(Nc1ncnc3c1ncn3[C@@H]1O[C@H](CO)[C@@H](O)[C@H]1O)C2` (stereo partly drawn) [Example 9, N^6-[6,7-Dimethyl-3-chromanylamino]adenosine], for which the HR change (10 mg/kg, Hour 7, conscious rat) worked out at 0%.
In turn, `OC[C@H]1O[C@@H](n2cnc3c(NC4COc5c(Cl)cccc5C4)ncnc32)[C@H](O)[C@@H]1O` (stereo partly drawn) [Example 5] yielded an HR change under setting [1] of 0%.
Regarding `COc1cc(OC)c2c(c1)OC(C)(C)CC2Nc1ncnc2c1ncn2[C@@H]1O[C@H](CO)[C@@H](O)[C@H]1O` (stereo partly drawn) [Example 14], the MAP change under setting [2] was 0%.
Turning to `Cc1ccc2c(c1C)OC(C)C(Nc1ncnc3c1ncn3[C@@H]1O[C@H](CO)[C@@H](O)[C@H]1O)C2` (stereo partly drawn) [Example 11], the HR change by setting is: under setting [2], 0%; under setting [1], 0%.
For the setting “3 mg/kg, Hour 5, conscious rat”, `Cc1ccc2c(c1C)OCC(Nc1ncnc3c1ncn3[C@@H]1O[C@H](CO)[C@@H](O)[C@H]1O)C2` (stereo partly drawn) [Example 10, N^6-[7,8-Dimethyl-3-chromanylamino]adenosine] gave an HR change of 0%.
